The values that follow come from a melting point compilation (Tetko et al.).

As usually defined, the melting point is the temperature of the solid-liquid transition. As to `O=C(O)C1CCN(c2ncc(C(F)(F)F)cc2Cl)CC1`, the melting point lay within 134 to 136 °C.
In turn, `CCCCNc1nnc(C)c2ccccc12` displayed a melting point of 74 to 76 °C.
For `CC(=O)Oc1cccc(C(=O)O)c1` the value was 131 to 134 °C; for `O=C(O)c1ccccc1C(=O)Nc1ccc(-c2ccccc2)cc1`, 292 to 294 °C.
In turn, `O=C(O)c1cc(-c2cccs2)nc2onc(C3CC3)c12` yielded a melting point of 236 to 238 °C.
In the case of `Sc1nncn1-c1cccc(Cl)c1` it was 187 to 189 °C.
Molecule `Cc1cc(C)cc(N(CCC(=O)O)S(=O)(=O)c2ccc(Br)cc2)c1` came in with a melting point of 133 to 135 °C.
In the case of `Cc1nc2cc(Cl)ccc2c(=O)n1N` it was 202 to 204 °C; in that of `Cc1ccc(-n2c(C)ccc2C)c(C(=O)O)c1`, 157 to 159 °C.
In the case of `O=C(O)C(Nc1ccccc1)c1ccccc1F` (stereo unspecified) it was 115 to 117 °C.
For the molecule `Brc1ccc2[nH]c3c(c2c1)CNCC3`, the melting point lay within 216 to 218 °C.
In turn, `ClCc1coc(-c2cccc(Cl)c2)n1` had a melting point of 76 to 78 °C.
`CCn1cc(S(N)(=O)=O)nc1C` returned a melting point of 179 to 181 °C.
In turn, `Cn1cnnc1C1CCNCC1` showed a melting point of 181 to 183 °C.
As for `COc1ccc2c(c1)CC(C(=O)O)CO2` (stereo unspecified), the melting point was in the range of 120 to 122 °C.
In the case of `CS(=O)(=O)Nc1cccc2c1CCCN2` it was 117 to 119 °C; in that of `CN(CC(=O)O)S(=O)(=O)c1ccc2c(c1)OCCO2`, 141 to 143 °C; in that of `O=C(O)c1cc(OCc2ccccc2)ccc1O`, 165 to 167 °C.
For the molecule `Nc1ncc(C(F)(F)F)cc1Cl`, the melting point is 86 to 90 °C.
As for `COc1ccc(C=NO)cc1OC`, the melting point lay in the range of 91 to 93 °C.
For `O=S(=O)(c1cccc(-c2nnc(S)o2)c1)N1CCCCC1` the value was 205 to 207 °C; for `CCCCc1nc2cc(NC(C)=O)ccc2[nH]1`, 192 to 194 °C.
`Cc1cc(=O)[nH]c(SCC(=O)O)c1C#N` returned a melting point of 198 to 200 °C.
For `O=C(O)C1CSC2(c3ccc(F)cc3)CCC(=O)N12` (stereo unspecified) the value was 202 to 204 °C; for `NNc1nccc2sccc12`, 191 to 193 °C.
Molecule `CS(=O)(=O)Nc1cccc(OCCN)c1` displayed a melting point of 134 to 136 °C.
As for `Cc1cc(O)cc(C(C)C)c1`, the melting point was in the range of 49 to 51 °C.
Turning to `CC(=O)Nc1c(C)cccc1C(=O)O`, the melting point is 204 to 206 °C.
Take `Cc1ccc(-c2noc(CC#N)n2)cc1`: the melting point lay in the range of 56 to 58 °C.
For `O=C(CCl)NC1CCC(C(F)(F)F)CC1` (stereo unspecified), the melting point was 65 to 67 °C.
For `O=C(O)c1cc2ccccc2c(OCC(F)(F)F)n1`, the melting point was 206 to 208 °C.
In turn, `CC(C)(C)c1ccc(N2CCC(=O)CC2)cc1` showed a melting point of 69 to 71 °C.
On to `O=C(NC1CCc2ccccc21)c1ccnc(F)c1` (stereo unspecified), for which the melting point was in the range of 121 to 123 °C.
`COC(=O)Cc1nn[nH]n1` displayed a melting point of 154 to 156 °C.
As to `COC(=O)C(=O)C=C(C)OC`, the melting point is 37 to 39 °C.
The molecule `COC(=O)c1c(C)cccc1S(=O)(=O)Cl` returned a melting point of 53 to 55 °C.
Turning to `O=C(O)C1CC1c1ccc(F)c(F)c1` (stereo unspecified), the melting point was in the range of 89 to 91 °C.
In turn, `O=C(Nc1ccc(F)cc1)C1CCc2ccccc2N1` (stereo unspecified) had a melting point of 115 to 117 °C.
On to `CC(C)c1ccc(N2CCC(C(=O)O)C2=O)cc1` (stereo unspecified), for which the melting point was 129 to 131 °C.
Turning to `N#Cc1ccc(N2N=C(c3ccccc3)CC2=O)cc1`, the melting point fell in the range of 211 to 213 °C.
Consider `Cc1cc2cc(C=O)oc2cc1C`, for which the melting point lay within 69 to 71 °C.
For `NC(=O)NCC1CC1` the value was 117 to 119 °C.
`ClCc1cc2c(cc1Br)OCCO2`: the melting point was in the range of 117 to 119 °C.
In turn, `CC(C)(CC(=O)O)CC(=O)N1CCOCC1` gave a melting point of 80 to 82 °C.
In the case of `O=C(O)C1CCN(c2ccc(F)cc2)C1=O` (stereo unspecified) it was 145 to 147 °C.
`CN(C)C(=O)c1cccc(S(N)(=O)=O)c1` returned a melting point of 121 to 123 °C.
`O=[N+]([O-])c1cnc(O)c(Cl)c1` showed a melting point of 198 to 200 °C.
For `N#CC1(NC(=O)CCl)CCCCC1`, the melting point fell in the range of 130 to 132 °C.
In the case of `Cc1ccc(Cn2nc(C)c(/C=C/C(=O)O)c2C)cc1`, the melting point lay in the range of 161 to 163 °C.
The molecule `O=C(O)CCNc1ccccc1[N+](=O)[O-]` came in with a melting point of 144 to 146 °C.
Consider `O=[N+]([O-])c1cncc(Br)c1`, for which the melting point was 99 to 101 °C.
As for `Cc1nc(COc2ccc(/C=C/C(=O)O)cc2)cs1`, the melting point is 185 to 187 °C.
In turn, `Nc1ccc(N2CCCCC2)c(S(=O)(=O)Nc2ccccc2Cl)c1` had a melting point of 146 to 148 °C.
Molecule `O=C(CCl)N1CC=C(c2c[nH]c3ccccc23)CC1` had a melting point of 172 to 174 °C.
For `Cn1cc(CN=[N+]=[N-])c(-c2ccc(C#N)cc2)n1` the value was 101 to 103 °C; for `CC1CN(S(=O)(=O)c2ccc(NC(=O)CCl)cc2)CC(C)O1` (stereo unspecified), 110 to 112 °C.
`Cc1ccc(Cn2nc(C)c(C=O)c2C)cc1` yielded a melting point of 65 to 67 °C.
Take `N#Cc1cccc2cnccc12`: the melting point was 126 to 128 °C.
In the case of `Cc1cc(S)nc(C(C)C)n1` it was 160 to 164 °C.
For `O=S(=O)(Cl)c1csc(-c2ccc(Cl)cc2)n1` the value was 93 to 95 °C.
On to `O=C1COc2ccc(C(=O)CCl)cc2N1`, for which the melting point is 228 to 230 °C.
Regarding `O=C(O)CCCCCN1C(=O)CSC1=S`, the melting point fell in the range of 85 to 87 °C.
In the case of `COc1ccc(C(=O)O)cc1-c1ccccn1` it was 226 to 228 °C; in that of `Nc1nc(-c2ccc(F)cc2)cs1`, 111 to 113 °C; in that of `NNC(=O)CNc1cccc(C(F)(F)F)c1`, 80 to 82 °C.
`Nc1nnc(Cc2ccccc2Cl)o1` showed a melting point of 196 to 198 °C.
Molecule `NC(=S)c1ccnc(-n2cncn2)c1` displayed a melting point of 258 to 260 °C.
As for `Cn1cc(N2CCC(N)C2=O)cn1` (stereo unspecified), the melting point was in the range of 131 to 133 °C.
In turn, `CC(=O)c1ccc(F)cc1OC(F)F` displayed a melting point of 55 to 57 °C.
Molecule `CCOc1cc(/C=N/O)ccc1O` displayed a melting point of 104 to 106 °C.
Take `Cn1nnnc1Sc1ccc(Cl)cc1N`: the melting point lay within 128 to 130 °C.
`O=C(O)C1CSc2ccccc2O1` (stereo unspecified) came in with a melting point of 126 to 128 °C.
For `COC(=O)c1cc(Br)ccc1S(=O)(=O)Cl` the value was 66 to 70 °C.
On to `O=C(CCl)c1ccc2c(c1)CCC2`, for which the melting point was 47 to 58 °C.
In the case of `O=C(O)CN1CCSC1=O` it was 173 to 175 °C; in that of `Nc1cc(S(=O)(=O)Nc2ccc(Cl)cc2)ccc1N1CCOCC1`, 55 to 58 °C; in that of `O=C(O)c1ccc2c(=O)n3c(nc2c1)CCC3`, 354 to 356 °C.
Turning to `COc1ccc(N2CCCNC(=O)C2)cc1`, the melting point was 172 to 174 °C.
`Cc1ccc(NC2C=CS(=O)(=O)C2)cc1C` (stereo unspecified) gave a melting point of 177 to 179 °C.
For `O=C(O)c1cc([N+](=O)[O-])ccc1SCCO` the value was 163 to 165 °C; for `NC(=O)CCC1CCCCC1`, 116 to 118 °C.
`Nc1n[nH]c2c(Cl)cccc12` yielded a melting point of 189 to 191 °C.
Regarding `CCOC(=O)c1ccncc1N`, the melting point was 173 to 175 °C.
`Nc1ncc(Cc2ccc(Cl)cc2)s1` displayed a melting point of 127 to 129 °C.
Turning to `CCCC(NC(=O)NCc1ccc(Br)cc1)C(=O)O` (stereo unspecified), the melting point was 160 to 162 °C.
In the case of `NC(=O)c1c(N)sc2c1CCCCC2` it was 195 to 199 °C.
